Results from patent publication US8969516B2, “Method of hydrolysis of peptide bond” (priority 2006, dated 2015).

Assay: MALDI-TOF screening of Ni^2+ dependent hydrolysis in a combinatorial peptide library
Assay type: physicochemical
Conditions: CH3CO-Gly-Ala-Ser-X-His-Z-Lys-Phe-Leu-NH2 library, Ni^2+ 2 mM, pH 8.2, 10 mM Tris, score=24/tm
Text: The sequence CH3CO-Gly-Ala-Ser/Thr-X-His-Z-Lys-Phe-Leu-NH2 was designed so that the fixed R1 and R2 sequences, CH3CO-Gly-Ala, and Lys-Phe-Leu-NH2, respectively, allowed optimal detection by MALDI-TOF mass spectrometry of substrates as well as expected products, Ser/Thr-X-His-Z-Lys-Phe-Leu-NH2 and assured separation between the clusters of signals for substrates and products in sublibraries (see below).
Residues in position X included all amino acids commonly present in proteins, except for Asp, Glu, and Cys. The former two contain carboxylates in their side chains, which may bind Ni^2+ in a way which would quench or slow down the hydrolysis reaction. The Cys residue may do the same, and also may engage in side reactions with Ni^2+ ions, including redox processes (for example see Bal and Kasprzak, Toxicol. Lett. 2002, 127, 55-62). Only the Cys residue was eliminated from position Z, for the same reasons.
The synthesis of the library was accomplished on a RINK amide resin (Novabiochem) on a 800 mg scale, according to a typical Fmoc protocol (Fields, Meth. Enzymol. Vol. 289). The resin-attached Leu-Phe-Lys peptide was synthesised first and coupled with the isokinetic mixture of 19 amino acids selected for position Z, and then with the H is residue. The resin carrying the library of pentapeptides was divided into Ser and Thr halves at this stage, and each of these halves into 17 portions, which were coupled with individual amino acids selected for position X. The coupling with Ser or Thr as appropriate, additions of Ala and Gly residues, acetylation of Gly, deprotection and cleavage from the resin were accomplished subsequently. Each of the resulting 34 samples of sublibraries randomized at position X was separated into two portions, one for the reaction at 37° C. and another for the reaction at 45° C. The hydrolysis reactions were accomplished in 10 mM Tris buffers at pH 8.2. The total concentrations of peptide mixtures and Ni^2+ ions were 1 mM and 2 mM, respectively. The pH for the reaction was chosen as selective for highly reactive sequences.
The detection of reaction products was accomplished with the use of a MALDI-TOF mass spectrometer (Micromass). The aliquots were removed from reaction mixtures and measured by MS at 2, 4, 6, and 8 hours of incubation. The progress of reaction was evaluated by visual detection in mass spectra of appearance of signals corresponding to expected products of hydrolysis, Ser/Thr-X-His-Z-Lys-Phe-Leu-NH2, at given measurement times, tm. […] Also the decrease of signals of substrates was controlled in these cases.
Residues X and Z were then sorted according to various molecular parameters, describing their physical properties (Carugo, In Silico Biol. 2003, 3, 0035). […] The Ser library provided a higher number of reactive peptides than the Thr library. Following the additivity of effects, the scores were also summed up in lines and columns of Table 1A-D, thereby creating final rankings for preferred substitutions in positions X and Z.

Substance: Ac-GASGHDKFL-NH2 [SGHD]
- hydrolysis score from MALDI-TOF screening (37° C.): 0 (a score of 0 if no trace of the product of hydrolysis was seen after 8 hours of incubation)
- hydrolysis score from MALDI-TOF screening (45° C.): 0 (a score of 0 if no trace of the product of hydrolysis was seen after 8 hours of incubation)

Substance: Ac-GASGHEKFL-NH2 [SGHE]
- hydrolysis score from MALDI-TOF screening (37° C.): 0 (a score of 0 if no trace of the product of hydrolysis was seen after 8 hours of incubation)
- hydrolysis score from MALDI-TOF screening (45° C.): 0 (a score of 0 if no trace of the product of hydrolysis was seen after 8 hours of incubation)

Substance: Ac-GASGHFKFL-NH2 [SGHF]
- hydrolysis score from MALDI-TOF screening (37° C.): 0 (a score of 0 if no trace of the product of hydrolysis was seen after 8 hours of incubation)
- hydrolysis score from MALDI-TOF screening (45° C.): 0 (a score of 0 if no trace of the product of hydrolysis was seen after 8 hours of incubation)

Substance: Ac-GASGHGKFL-NH2 [SGHG]
- hydrolysis score from MALDI-TOF screening (37° C.): 0 (a score of 0 if no trace of the product of hydrolysis was seen after 8 hours of incubation)
- hydrolysis score from MALDI-TOF screening (45° C.): 0 (a score of 0 if no trace of the product of hydrolysis was seen after 8 hours of incubation)

Substance: Ac-GASGHHKFL-NH2 [SGHH]
- hydrolysis score from MALDI-TOF screening (37° C.): 0 (a score of 0 if no trace of the product of hydrolysis was seen after 8 hours of incubation)
- hydrolysis score from MALDI-TOF screening (45° C.): 0 (a score of 0 if no trace of the product of hydrolysis was seen after 8 hours of incubation)

Substance: Ac-GASGHIKFL-NH2 [SGHI]
- hydrolysis score from MALDI-TOF screening (37° C.): 0 (a score of 0 if no trace of the product of hydrolysis was seen after 8 hours of incubation)
- hydrolysis score from MALDI-TOF screening (45° C.): 3 (a score of 3 for detection at 8 hours)

Substance: Ac-GASGHKKFL-NH2 [SGHK]
- hydrolysis score from MALDI-TOF screening (37° C.): 0 (a score of 0 if no trace of the product of hydrolysis was seen after 8 hours of incubation)
- hydrolysis score from MALDI-TOF screening (45° C.): 3 (a score of 3 for detection at 8 hours)

Substance: Ac-GASGHLKFL-NH2 [SGHL]
- hydrolysis score from MALDI-TOF screening (37° C.): 0 (a score of 0 if no trace of the product of hydrolysis was seen after 8 hours of incubation)
- hydrolysis score from MALDI-TOF screening (45° C.): 3 (a score of 3 for detection at 8 hours)

Substance: Ac-GASGHMKFL-NH2 [SGHM]
- hydrolysis score from MALDI-TOF screening (37° C.): 0 (a score of 0 if no trace of the product of hydrolysis was seen after 8 hours of incubation)
- hydrolysis score from MALDI-TOF screening (45° C.): 0 (a score of 0 if no trace of the product of hydrolysis was seen after 8 hours of incubation)

Substance: Ac-GASGHNKFL-NH2 [SGHN]
- hydrolysis score from MALDI-TOF screening (37° C.): 0 (a score of 0 if no trace of the product of hydrolysis was seen after 8 hours of incubation)
- hydrolysis score from MALDI-TOF screening (45° C.): 0 (a score of 0 if no trace of the product of hydrolysis was seen after 8 hours of incubation)

Substance: Ac-GASGHPKFL-NH2 [SGHP]
- hydrolysis score from MALDI-TOF screening (37° C.): 0 (a score of 0 if no trace of the product of hydrolysis was seen after 8 hours of incubation)
- hydrolysis score from MALDI-TOF screening (45° C.): 0 (a score of 0 if no trace of the product of hydrolysis was seen after 8 hours of incubation)

Substance: Ac-GASGHQKFL-NH2 [SGHQ]
- hydrolysis score from MALDI-TOF screening (37° C.): 0 (a score of 0 if no trace of the product of hydrolysis was seen after 8 hours of incubation)
- hydrolysis score from MALDI-TOF screening (45° C.): 0 (a score of 0 if no trace of the product of hydrolysis was seen after 8 hours of incubation)

Substance: Ac-GASGHRKFL-NH2 [SGHR]
- hydrolysis score from MALDI-TOF screening (37° C.): 3 (a score of 3 for detection at 8 hours)
- hydrolysis score from MALDI-TOF screening (45° C.): 3 (a score of 3 for detection at 8 hours)

Substance: Ac-GASGHSKFL-NH2 [SGHS]
- hydrolysis score from MALDI-TOF screening (37° C.): 0 (a score of 0 if no trace of the product of hydrolysis was seen after 8 hours of incubation)
- hydrolysis score from MALDI-TOF screening (45° C.): 0 (a score of 0 if no trace of the product of hydrolysis was seen after 8 hours of incubation)

Substance: Ac-GASGHTKFL-NH2 [SGHT]
- hydrolysis score from MALDI-TOF screening (37° C.): 0 (a score of 0 if no trace of the product of hydrolysis was seen after 8 hours of incubation)
- hydrolysis score from MALDI-TOF screening (45° C.): 0 (a score of 0 if no trace of the product of hydrolysis was seen after 8 hours of incubation)

Substance: Ac-GASGHVKFL-NH2 [SGHV]
- hydrolysis score from MALDI-TOF screening (37° C.): 0 (a score of 0 if no trace of the product of hydrolysis was seen after 8 hours of incubation)
- hydrolysis score from MALDI-TOF screening (45° C.): 3 (a score of 3 for detection at 8 hours)

Substance: Ac-GASGHWKFL-NH2 [SGHW]
- hydrolysis score from MALDI-TOF screening (37° C.): 3 (a score of 3 for detection at 8 hours)
- hydrolysis score from MALDI-TOF screening (45° C.): 4 (a score of 4 for detection at 6 hours)

Substance: Ac-GASGHYKFL-NH2 [SGHY]
- hydrolysis score from MALDI-TOF screening (37° C.): 0 (a score of 0 if no trace of the product of hydrolysis was seen after 8 hours of incubation)
- hydrolysis score from MALDI-TOF screening (45° C.): 0 (a score of 0 if no trace of the product of hydrolysis was seen after 8 hours of incubation)

Substance: Ac-GASHHDKFL-NH2 [SHHD]
- hydrolysis score from MALDI-TOF screening (37° C.): 0 (a score of 0 if no trace of the product of hydrolysis was seen after 8 hours of incubation)
- hydrolysis score from MALDI-TOF screening (45° C.): 0 (a score of 0 if no trace of the product of hydrolysis was seen after 8 hours of incubation)

Substance: Ac-GASHHEKFL-NH2 [SHHE]
- hydrolysis score from MALDI-TOF screening (37° C.): 0 (a score of 0 if no trace of the product of hydrolysis was seen after 8 hours of incubation)
- hydrolysis score from MALDI-TOF screening (45° C.): 0 (a score of 0 if no trace of the product of hydrolysis was seen after 8 hours of incubation)

Substance: Ac-GASHHFKFL-NH2 [SHHF]
- hydrolysis score from MALDI-TOF screening (37° C.): 3 (a score of 3 for detection at 8 hours)
- hydrolysis score from MALDI-TOF screening (45° C.): 3 (a score of 3 for detection at 8 hours)

Substance: Ac-GASHHGKFL-NH2 [SHHG]
- hydrolysis score from MALDI-TOF screening (37° C.): 3 (a score of 3 for detection at 8 hours)
- hydrolysis score from MALDI-TOF screening (45° C.): 0 (a score of 0 if no trace of the product of hydrolysis was seen after 8 hours of incubation)

Substance: Ac-GASHHHKFL-NH2 [SHHH]
- hydrolysis score from MALDI-TOF screening (37° C.): 0 (a score of 0 if no trace of the product of hydrolysis was seen after 8 hours of incubation)
- hydrolysis score from MALDI-TOF screening (45° C.): 0 (a score of 0 if no trace of the product of hydrolysis was seen after 8 hours of incubation)

Substance: Ac-GASHHIKFL-NH2 [SHHI]
- hydrolysis score from MALDI-TOF screening (37° C.): 6 (a score of 6 for detection at 4 hours)
- hydrolysis score from MALDI-TOF screening (45° C.): 6 (a score of 6 for detection at 4 hours)

Substance: Ac-GASHHKKFL-NH2 [SHHK]
- hydrolysis score from MALDI-TOF screening (37° C.): 6 (a score of 6 for detection at 4 hours)
- hydrolysis score from MALDI-TOF screening (45° C.): 12 (a score of 12, if it was seen to be partially hydrolysed at 2 hours)

Substance: Ac-GASHHLKFL-NH2 [SHHL]
- hydrolysis score from MALDI-TOF screening (37° C.): 6 (a score of 6 for detection at 4 hours)
- hydrolysis score from MALDI-TOF screening (45° C.): 6 (a score of 6 for detection at 4 hours)

Substance: Ac-GASHHMKFL-NH2 [SHHM]
- hydrolysis score from MALDI-TOF screening (37° C.): 0 (a score of 0 if no trace of the product of hydrolysis was seen after 8 hours of incubation)
- hydrolysis score from MALDI-TOF screening (45° C.): 0 (a score of 0 if no trace of the product of hydrolysis was seen after 8 hours of incubation)

Substance: Ac-GASHHNKFL-NH2 [SHHN]
- hydrolysis score from MALDI-TOF screening (37° C.): 0 (a score of 0 if no trace of the product of hydrolysis was seen after 8 hours of incubation)
- hydrolysis score from MALDI-TOF screening (45° C.): 0 (a score of 0 if no trace of the product of hydrolysis was seen after 8 hours of incubation)

Substance: Ac-GASHHPKFL-NH2 [SHHP]
- hydrolysis score from MALDI-TOF screening (37° C.): 0 (a score of 0 if no trace of the product of hydrolysis was seen after 8 hours of incubation)
- hydrolysis score from MALDI-TOF screening (45° C.): 0 (a score of 0 if no trace of the product of hydrolysis was seen after 8 hours of incubation)

Substance: Ac-GASHHQKFL-NH2 [SHHQ]
- hydrolysis score from MALDI-TOF screening (37° C.): 0 (a score of 0 if no trace of the product of hydrolysis was seen after 8 hours of incubation)
- hydrolysis score from MALDI-TOF screening (45° C.): 0 (a score of 0 if no trace of the product of hydrolysis was seen after 8 hours of incubation)

Substance: Ac-GASHHRKFL-NH2 [SHHR]
- hydrolysis score from MALDI-TOF screening (37° C.): 4 (a score of 4 for detection at 6 hours)
- hydrolysis score from MALDI-TOF screening (45° C.): 6 (a score of 6 for detection at 4 hours)

Substance: Ac-GASHHSKFL-NH2 [SHHS]
- hydrolysis score from MALDI-TOF screening (37° C.): 0 (a score of 0 if no trace of the product of hydrolysis was seen after 8 hours of incubation)
- hydrolysis score from MALDI-TOF screening (45° C.): 0 (a score of 0 if no trace of the product of hydrolysis was seen after 8 hours of incubation)

Substance: Ac-GASHHTKFL-NH2 [SHHT]
- hydrolysis score from MALDI-TOF screening (37° C.): 0 (a score of 0 if no trace of the product of hydrolysis was seen after 8 hours of incubation)
- hydrolysis score from MALDI-TOF screening (45° C.): 0 (a score of 0 if no trace of the product of hydrolysis was seen after 8 hours of incubation)
